According to EP2573088A1, “Pyrano[3,2-c]benzopyran-6(2h)-one derivatives and uses thereof” (Prous Institute for Biomedical Research, S.A., priority 2011, dated 2013):

Experiments:
[1] = tested on: fed mice; assay: Blood glucose after i.p. glucose challenge, fed mice; assay type: in vivo
Description: (§1) Male C57BL/6 mice weighing 25 ± 3 g were provided by Harlan. Space allocation for five animals was 29 x 18 x 13 cm. All animals were maintained in a controlled temperature (21-23 °C) and humidity (50-70%) environment on a 12-hour light/dark cycle for 7 days in the animal facilities. Free access to standard chow for mice and reverse osmosis water were given. All aspects of this work, including housing, experimentation and disposal of animals, were performed in general accordance with the Guide for the Care and Use of Laboratory Animals.
(§2) Then, the blood glucose concentrations were measured at 15, 30, 60, 90, and 120 minutes after the glucose injection (Glucometer and Reactive Strips Accu-chek Aviva, Roche) [Zhang, W. et al. Pharmacol Res 2011, 63: 284-93]. Free access to food and water was maintained throughout the study. Under fasting conditions, mice were deprived of food 4 hours before and during the experiment and the experimental protocol was followed as detailed above.

[2] = tested on: fasted mice; assay: Blood glucose after i.p. glucose challenge, fasted mice; assay type: in vivo; conditions: oral
Description: as §1, §2

[3] = tested on: Syrian hamster embryo (SHE) cell, BALB/c 3T3, and CH310T1/2; assay: Cell transformation assays (CTAs), carcinogenic assessment; assay type: cell-based; conditions: CTA assays, compared with structurally related compounds with carcinogenic potential
Text: Carcinogenic potential may arise from a direct genotoxic effect or nongenotoxic effects. Epigenetic factors may contribute to tumor cell proliferation by routes other than a direct interaction with DNA. In that case, xenobiotics may act as cancer promoters in species other than those employed in preclinical drug development. Cell transformation assays (CTAs), including the main in vitro CTAs --the Syrian hamster embryo (SHE) cell, BALB/c 3T3, and CH310T1/2 assays-- are experimental tools reviewed by the OECD [Environment, Health and Safety Publications, Series on Testing and Assessment nº 31. Detailed review paper on cell transformation assays for detection of chemical carcinogens. November 28, 2006].

[4] = tested on: streptozotocin-induced diabetic mice; assay: Blood glucose in mice with streptozotocin-induced diabetes; assay type: in vivo; conditions: for reduction in blood glucose concentrations when compared to basal values: range over the experimental time points
Description: as §1
In mice with streptozotocin-induced diabetes [Tokunaga, H. et al. Eur J Pharmacol 1983, 87(2-3): 237-43], diabetes was induced with a […] i.p. injection of streptozotocin (Sigma) 50 mg/kg body weight, freshly dissolved in NaCl 0.9% during 5 consecutive days. After 4 weeks, those mice (80%) with basal glucose concentrations under fasting (4 hours) conditions above 220 mg/dL were included in the assay. The test substance, positive and negative controls were administered by the p.o. route 30 minutes before measurement of the blood glucose concentrations at 0, 15, 30, 60, 90, and 120 minutes. Free access to water was maintained throughout the study.

[5] = Maximum tolerated dose after single oral administration; conditions: mouse, in vivo, mice, observed up to 72 hours
Description: The maximum tolerated dose (MTD) was assessed in mice after single oral administration of high doses of Example 1 of 1 g/kg, 500 mg/kg, and 100 mg/kg, and the development of acute toxic symptoms (mortality, convulsions, tremors, muscle relaxation, sedation, etc.) and autonomic effects (diarrhea, salivation, lacrimation, vasodilation, piloerection, etc.) was observed during the first hour. The animals were then observed again for mortality at 3, 24, 48, and 72 hours. The mice were sacrificed if they lost more than 20% of their body weight or if there were other signs of significant toxicity. The MTD obtained for Example 1 in the above experimental conditions was 1 g/kg.

[6] = tested on: human platelet-rich plasma; assay: Platelet aggregation inhibition after induction by ADP, arachidonic acid or collagen; assay type: cell-based; conditions: different concentrations
Description: Platelet aggregation inhibition was evaluated after the induction of aggregation by ADP, arachidonic acid or collagen in human platelet-rich plasma [Bertele, V. et al. Science 1983, 220(4596): 517-9; Knöfler, R. et al. Thromb Res 1995, 77(1): 69-78]. […] Platelet function was additionally tested under rheological conditions in human whole blood using a platelet function test device, PFA-100 [Frossard, M. et al. Circulation 2004, 110(11): 1392-7; Hennekens, C.H. et al. Circulation 2004, 110(12): 1706-8]. An increase (26%-30%) in aggregation time in the presence of collagen-epinephrine was noted, indicating platelet aggregation-inhibitory activity for compounds in examples 1 to 12 at 1 µM concentration under rheological conditions.

Row | Structure (SMILES) | decrease in blood glucose concentrations ([1]; fed mice, oral, after i.p. glucose challenge (1 g/kg)) | reduction in blood glucose concentrations when compared to basal values ([1]; fed, single oral dose 3 mg/kg, 90 minutes after glucose challenge) [%] | reduction in blood glucose concentrations when compared to basal values ([1]; fed, single oral dose 3 mg/kg, 120 minutes after glucose challenge) [%] | reduction in blood glucose concentrations when compared to basal values ([1]; fed, single oral dose 30 mg/kg, 90 minutes after glucose challenge) [%] | reduction in blood glucose concentrations when compared to basal values ([1]; fed, single oral dose 30 mg/kg, 120 minutes after glucose challenge) [%] | reduction in blood glucose concentrations when compared to basal values ([1]; fed, single oral dose 300 mg/kg, 90 minutes after glucose challenge) [%] | reduction in blood glucose concentrations when compared to basal values ([1]; fed, single oral dose 300 mg/kg, 120 minutes after glucose challenge) [%] | decrease in blood glucose concentrations ([2]; fasted mice, after i.p. glucose challenge (1 g/kg)) | hypoglycemic activity ([2]; fasted, 0.3 mg/kg) | carcinogenic potential [3] | hypoglycemic effect ([4]; 0.1 mg/kg) | reduction in blood glucose concentrations when compared to basal values ([4]; 3 mg/kg oral) | reduction in blood glucose concentrations when compared to basal values ([4]; 30 mg/kg oral) | reduction in blood glucose concentrations when compared to basal values ([4]; 300 mg/kg oral) | decrease in blood glucose concentrations ([4]; mice with streptozotocin-induced diabetes, oral) | MTD at 72 h [5] [mg/kg] | inhibition of platelet aggregation [6] | decrease in blood glucose concentrations ([1]; fed, positive control, dose not given, 90 minutes after glucose challenge) [%] | decrease in blood glucose concentrations ([1]; fed, positive control, dose not given, 120 minutes after glucose challenge) [%]
1 | CCc1ccc(Cc2ccc3c(c2)[C@@H]2O[C@H](CO)[C@@H](O)[C@H](O)[C@H]2OC3=O)cc1 [Example 1, (2R,3S,4S,4aR,10bS)-9-(4-Ethylbenzyl)-3,4-dihydroxy-2-(hydroxymethyl)-3,4,4a,10b-tetrahydropyrano[3,2-c][2]benzopyran-6(2H)-one] | decrease in blood glucose concentrations | 12.01 | 9.63 | 6.04 | 4.71 | 2.52 | 10.2 | decrease in blood glucose concentrations | hypoglycemic activity | no carcinogenic potential | No relevant hypoglycemic effect | 7-22% | 7-26% | 18-42% | decrease in blood glucose concentrations | 1000 | inhibition of platelet aggregation |  | 
2 | CCCCNC(=O)NS(=O)(=O)c1ccc(C)cc1 [Tolbutamide, reference compound] |  |  |  |  |  |  |  |  |  |  |  |  |  |  |  |  |  | 7.76 | 3.22
